{
  "source": "patent US8455439B2",
  "about": "“Antidotes for factor Xa inhibitors and methods of using the same in combination with blood coagulating agents” (Portola Pharmaceuticals, Inc., priority 2008, dated 2013)",
  "key": {"pooled human plasma [1]": {"test_system": "pooled human plasma", "assay": "Prothrombin time (PT) clotting assay, MLA Electra 800 automatic coagulation timer", "assay_type": "biochemical", "conditions": "1 μM rivaroxaban alone (baseline 12.2 sec)"}, "[2]": {"conditions": "cited from earlier work"}, "pooled human plasma [3]": {"test_system": "pooled human plasma", "assay": "aPTT clotting assay, MLA Electra 800 automatic coagulation timer", "assay_type": "biochemical", "method": "Two clotting assay formats were used to test the effects of factor Xa inhibitors and the antidote on clotting prolongation. […] In the second assay format, aPTT was measured with a conventional coagulation instrument (MLA Electra 800 automatic coagulation timer).\nThe effect of 1 antiXa Unit/mL LMWH on aPTT prolongation of plasma and the reversal of inhibitory effect was measured by a MLA Electra 800 Automatic coagulation timer. 100 μL pooled citrate anticoagulated human plasma was mixed with enoxaparin and different concentrations of antidote. Prior to measurement of clotting time, aPTT reagent (Actin FS, Dade Behring) and CaCl2 were added per manufacturer's instructions."}, "[4]": {"test_system": "thrombin generation in human plasma", "assay": "Thrombin generation assay in platelet poor or platelet rich plasma", "assay_type": "biochemical", "conditions": "250 nM betrixaban, at all rfVIIa concentrations tested (50-200 nM) with tissue factor; FIG. 4", "method": "PRP and PPP were prepared by spinning the anticoagulated blood at ˜100× gravity or 1000× gravity for 20 minutes, respectively, at room temperature. 75-100 microliter (uL) plasma was mixed with CaCl2 and Z-Gly-Gly-Arg-aminomethylcoumarin (Z-GGR-AMC, a thrombin fluorogenic substrate). Tissue factor (Innovin, Dade Behring) was added to initiate the generation of thrombin. For a typical experiment, the reaction mixture contained 15 millimolar (mM) Ca^2+, 100 micromolar (μM) Z-GGR-AMC, and 0.1 nanomolar (nM) tissue factor (TF) (Innovin). Thrombin formation was monitored continuously at 37° C. by a fluorometric plate reader (Molecular Devices) measuring the relative fluorescence units (RFU). Inhibitor and antidote, when present, were pre-incubated with plasma for 20 minutes at room temperature before initiation of thrombin generation.\nPRP and PPP were prepared by spinning the anticoagulated blood at ˜100× gravity or 1000× gravity for 20 minutes, respectively, at room temperature. […] Tissue factor (Innovin, Dade Behring) and CaCl2 were added to initiate the generation of thrombin. […] Thrombin formation was monitored continuously at 37° C. by a fluorometric plate reader (Molecular Devices) measuring the relative fluorescence units (RFU). […]"}, "[5]": {"test_system": "human platelet poor plasma", "assay": "Clotting prolongation assay, 96-well plate format (OD405 turbidity change, aPTT reagent)", "assay_type": "biochemical", "conditions": "125 nM betrixaban, no r-Antidote, no FX; FIG. 26"}},
  "note": "Values joined by “and” are separate entries in the source; they are usually repeats but may differ in a detail not shown here. Equal values may be shown once.",
  "data": [
    {"compound": "O=C(NC[C@H]1CN(c2ccc(N3CCOCC3=O)cc2)C(=O)O1)c1ccc(Cl)s1", "note": "[rivaroxaban]", "values": [
      {"measurement": "PT", "setting": "pooled human plasma [1]", "result": "25 ± 0.4", "unit": "s"},
      {"measurement": "peak plasma concentrations", "setting": "[2]; clinically effective doses", "result": "≤ 318 ng/ml and ≤ 730 nM"},
      {"measurement": "therapeutic concentrations", "setting": "[2]; reported, Kubitza 2005", "result": "approximately 600 nM"}
    ]},
    {"compound": "[2-({4-[(dimethylamino)iminomethyl]phenyl}carbonylamino)-5-methoxyphenyl]-N-(5-chloro(2-pyridyl))carboxamide [betrixaban]", "values": [
      {"measurement": "aPTT", "setting": "pooled human plasma [3]; 300 nM Betrixaban alone", "result": 61.8, "unit": "s"},
      {"measurement": "aPTT", "setting": "pooled human plasma [3]; 400 nM Betrixaban alone (Table 17)", "result": 66.3, "unit": "s"},
      {"measurement": "aPTT", "setting": "pooled human plasma [3]; 400 nM betrixaban alone (Example 17, baseline 25.5 sec)", "result": "51.6 ± 0.4", "unit": "s"},
      {"measurement": "extension of aPTT", "setting": "pooled human plasma [3]; 400 nM betrixaban, FIG. 13", "result": "more than two folds"},
      {"measurement": "inhibition of fXa by betrixaban (thrombin generation)", "setting": "[4]", "result": "about 75%"},
      {"measurement": "effect on clotting time", "setting": "[5]", "result": "doubled the clotting time"}
    ]},
    {"compound": "fIX: human plasma derived blood coagulation factor IX (Haematologic Technologies)", "values": [
      {"measurement": "aPTT", "setting": "pooled human plasma [3]; 258 nM fIX, 400 nM betrixaban", "result": 43.8, "unit": "s"},
      {"measurement": "correction of aPTT", "setting": "pooled human plasma [3]; 258 nM fIX, 400 nM betrixaban", "result": 15, "unit": "%"},
      {"measurement": "correction of aPTT", "setting": "pooled human plasma [3]; 387 nM fIX, 400 nM betrixaban", "result": 15, "unit": "%"},
      {"measurement": "effect on aPTT in human plasma", "setting": "pooled human plasma [3]; fIX, absence of betrixaban, FIG. 25", "result": "slightly reduced aPTT"}
    ]}
  ]
}
